# Measurements from ChEMBL document CHEMBL1250513, “(R,S)-anti-1-amino-2-[18F]fluorocyclopentyl-1-carboxylic acid: synthesis from racemic 2-benzyloxycyclopentanone and biological evaluation for brain tumor imaging with positron emission tomography” (J Med Chem, 2010).
# How the values were obtained:
# [1] = Ratio of drug uptake in tumor to brain in rat 9L tumor bearing fisher rat […] at 40 to 50 uCi, iv after 15 mins; type: ADME, organism-based; details: in vivo, 0.25 h
# [2] = Biodistribution in rat 9L tumor bearing fisher rat tumor at 40 to 50 uCi, iv after 15 mins; type: ADME, organism-based, Neoplasm; details: in vivo, 0.25 h
# Brain [3] = experiment: Biodistribution in rat 9L tumor bearing fisher rat brain at 40 to 50 uCi, iv after 15 mins; type: ADME, organism-based; details: in vivo, 0.25 h
# Heart [4] = experiment: Biodistribution in rat 9L tumor bearing fisher rat heart at 40 to 50 uCi, iv after 15 mins; type: ADME, organism-based; details: in vivo, 0.25 h
# Kidney [5] = experiment: Biodistribution in rat 9L tumor bearing fisher rat kidney at 40 to 50 uCi, iv after 60 mins; type: ADME, organism-based; details: in vivo, 1 h
# Brain [6] = experiment: Biodistribution in rat 9L tumor bearing fisher rat brain at 40 to 50 uCi, iv after 30 mins; type: ADME, organism-based; details: in vivo, 0.5 h
# Testes [7] = experiment: Biodistribution in rat 9L tumor bearing fisher rat testes at 40 to 50 uCi, iv after 15 mins; type: ADME, organism-based, Testis; details: in vivo, 0.25 h
# Heart [8] = experiment: Biodistribution in rat 9L tumor bearing fisher rat heart at 40 to 50 uCi, iv after 120 mins; type: ADME, organism-based; details: in vivo, 2 h
# Heart [9] = experiment: Biodistribution in rat 9L tumor bearing fisher rat heart at 40 to 50 uCi, iv after 60 mins; type: ADME, organism-based; details: in vivo, 1 h
# Bone [10] = experiment: Biodistribution in rat 9L tumor bearing fisher rat bone at 40 to 50 uCi, iv after 15 mins; type: ADME, organism-based, Bone element; details: in vivo, 0.25 h
# Pancreas [11] = experiment: Biodistribution in rat 9L tumor bearing fisher rat pancreas at 40 to 50 uCi, iv after 60 mins; type: ADME, organism-based; details: in vivo, 1 h
# [12] = Biodistribution in rat 9L tumor bearing fisher rat tumor at 40 to 50 uCi, iv after 30 mins; type: ADME, organism-based, Neoplasm; details: in vivo, 0.5 h
# Spleen [13] = experiment: Biodistribution in rat 9L tumor bearing fisher rat spleen at 40 to 50 uCi, iv after 15 mins; type: ADME, organism-based; details: in vivo, 0.25 h
# Testes [14] = experiment: Biodistribution in rat 9L tumor bearing fisher rat testes at 40 to 50 uCi, iv after 120 mins; type: ADME, organism-based, Testis; details: in vivo, 2 h
# Kidney [15] = experiment: Biodistribution in rat 9L tumor bearing fisher rat kidney at 40 to 50 uCi, iv after 120 mins; type: ADME, organism-based; details: in vivo, 2 h
# Bone [16] = experiment: Biodistribution in rat 9L tumor bearing fisher rat bone at 40 to 50 uCi, iv after 30 mins; type: ADME, organism-based, Bone element; details: in vivo, 0.5 h
# Spleen [17] = experiment: Biodistribution in rat 9L tumor bearing fisher rat spleen at 40 to 50 uCi, iv after 120 mins; type: ADME, organism-based; details: in vivo, 2 h
# Lung [18] = experiment: Biodistribution in rat 9L tumor bearing fisher rat lung at 40 to 50 uCi, iv after 60 mins; type: ADME, organism-based; details: in vivo, 1 h
# Heart [19] = experiment: Biodistribution in rat 9L tumor bearing fisher rat heart at 40 to 50 uCi, iv after 30 mins; type: ADME, organism-based; details: in vivo, 0.5 h
# Testes [20] = experiment: Biodistribution in rat 9L tumor bearing fisher rat testes at 40 to 50 uCi, iv after 30 mins; type: ADME, organism-based, Testis; details: in vivo, 0.5 h
# Pancreas [21] = experiment: Biodistribution in rat 9L tumor bearing fisher rat pancreas at 40 to 50 uCi, iv after 15 mins; type: ADME, organism-based; details: in vivo, 0.25 h
# Muscle tissue [22] = experiment: Biodistribution in rat 9L tumor bearing fisher rat muscle at 40 to 50 uCi, iv after 60 mins; type: ADME, organism-based; details: in vivo, 1 h
# Liver [23] = experiment: Biodistribution in rat 9L tumor bearing fisher rat liver at 40 to 50 uCi, iv after 15 mins; type: ADME, organism-based; details: in vivo, 0.25 h
# Blood [24] = experiment: Biodistribution in rat 9L tumor bearing fisher rat blood at 40 to 50 uCi, iv after 120 mins; type: ADME, organism-based; details: in vivo, 2 h
# Kidney [25] = experiment: Biodistribution in rat 9L tumor bearing fisher rat kidney at 40 to 50 uCi, iv after 30 mins; type: ADME, organism-based; details: in vivo, 0.5 h
# [26] = Biodistribution in rat 9L tumor bearing fisher rat tumor at 40 to 50 uCi, iv after 60 mins; type: ADME, organism-based, Neoplasm; details: in vivo, 1 h
# Brain [27] = experiment: Biodistribution in rat 9L tumor bearing fisher rat brain at 40 to 50 uCi, iv after 120 mins; type: ADME, organism-based; details: in vivo, 2 h
# Liver [28] = experiment: Biodistribution in rat 9L tumor bearing fisher rat liver at 40 to 50 uCi, iv after 60 mins; type: ADME, organism-based; details: in vivo, 1 h
# Blood [29] = experiment: Biodistribution in rat 9L tumor bearing fisher rat blood at 40 to 50 uCi, iv after 15 mins; type: ADME, organism-based; details: in vivo, 0.25 h
# Spleen [30] = experiment: Biodistribution in rat 9L tumor bearing fisher rat spleen at 40 to 50 uCi, iv after 30 mins; type: ADME, organism-based; details: in vivo, 0.5 h
# Pancreas [31] = experiment: Biodistribution in rat 9L tumor bearing fisher rat pancreas at 40 to 50 uCi, iv after 120 mins; type: ADME, organism-based; details: in vivo, 2 h
# Liver [32] = experiment: Biodistribution in rat 9L tumor bearing fisher rat liver at 40 to 50 uCi, iv after 30 mins; type: ADME, organism-based; details: in vivo, 0.5 h
# [33] = Ratio of drug uptake in tumor to brain in rat 9L tumor bearing fisher rat […] at 40 to 50 uCi, iv after 30 mins; type: ADME, organism-based; details: in vivo, 0.5 h
# [34] = Biodistribution in rat 9L tumor bearing fisher rat tumor at 40 to 50 uCi, iv after 120 mins; type: ADME, organism-based, Neoplasm; details: in vivo, 2 h
# Blood [35] = experiment: Biodistribution in rat 9L tumor bearing fisher rat blood at 40 to 50 uCi, iv after 30 mins; type: ADME, organism-based; details: in vivo, 0.5 h
# Lung [36] = experiment: Biodistribution in rat 9L tumor bearing fisher rat lung at 40 to 50 uCi, iv after 15 mins; type: ADME, organism-based; details: in vivo, 0.25 h
# Muscle tissue [37] = experiment: Biodistribution in rat 9L tumor bearing fisher rat muscle at 40 to 50 uCi, iv after 30 mins; type: ADME, organism-based; details: in vivo, 0.5 h
# Lung [38] = experiment: Biodistribution in rat 9L tumor bearing fisher rat lung at 40 to 50 uCi, iv after 30 mins; type: ADME, organism-based; details: in vivo, 0.5 h
# Liver [39] = experiment: Biodistribution in rat 9L tumor bearing fisher rat liver at 40 to 50 uCi, iv after 120 mins; type: ADME, organism-based; details: in vivo, 2 h
# Pancreas [40] = experiment: Biodistribution in rat 9L tumor bearing fisher rat pancreas at 40 to 50 uCi, iv after 30 mins; type: ADME, organism-based; details: in vivo, 0.5 h
# Testes [41] = experiment: Biodistribution in rat 9L tumor bearing fisher rat testes at 40 to 50 uCi, iv after 60 mins; type: ADME, organism-based, Testis; details: in vivo, 1 h
# Bone [42] = experiment: Biodistribution in rat 9L tumor bearing fisher rat bone at 40 to 50 uCi, iv after 60 mins; type: ADME, organism-based, Bone element; details: in vivo, 1 h
# [43] = Ratio of drug uptake in tumor to brain in rat 9L tumor bearing fisher rat […] at 40 to 50 uCi, iv after 60 mins; type: ADME, organism-based; details: in vivo, 1 h
# Lung [44] = experiment: Biodistribution in rat 9L tumor bearing fisher rat lung at 40 to 50 uCi, iv after 120 mins; type: ADME, organism-based; details: in vivo, 2 h
# Spleen [45] = experiment: Biodistribution in rat 9L tumor bearing fisher rat spleen at 40 to 50 uCi, iv after 60 mins; type: ADME, organism-based; details: in vivo, 1 h
# Bone [46] = experiment: Biodistribution in rat 9L tumor bearing fisher rat bone at 40 to 50 uCi, iv after 120 mins; type: ADME, organism-based, Bone element; details: in vivo, 2 h
# Brain [47] = experiment: Biodistribution in rat 9L tumor bearing fisher rat brain at 40 to 50 uCi, iv after 60 mins; type: ADME, organism-based; details: in vivo, 1 h
# Blood [48] = experiment: Biodistribution in rat 9L tumor bearing fisher rat blood at 40 to 50 uCi, iv after 60 mins; type: ADME, organism-based; details: in vivo, 1 h
# Kidney [49] = experiment: Biodistribution in rat 9L tumor bearing fisher rat kidney at 40 to 50 uCi, iv after 15 mins; type: ADME, organism-based; details: in vivo, 0.25 h
# [50] = Ratio of drug uptake in tumor to brain in rat 9L tumor bearing fisher rat […] at 40 to 50 uCi, iv after 120 mins; type: ADME, organism-based; details: in vivo, 2 h
# Muscle tissue [51] = experiment: Biodistribution in rat 9L tumor bearing fisher rat muscle at 40 to 50 uCi, iv after 15 mins; type: ADME, organism-based; details: in vivo, 0.25 h
# Muscle tissue [52] = experiment: Biodistribution in rat 9L tumor bearing fisher rat muscle at 40 to 50 uCi, iv after 120 mins; type: ADME, organism-based; details: in vivo, 2 h
structure (smiles),measurement,setting,value
N[C@@]1(C(=O)O)CCC[C@@H]1[18F] (racemic),Ratio,[1],5
same,Drug uptake,[2],0.57 % ID/g
same,Drug uptake,Brain [3],0.12 % ID/g
same,Drug uptake,Heart [4],0.56 % ID/g
same,Drug uptake,Kidney [5],2 % ID/g
same,Drug uptake,Brain [6],0.13 % ID/g
same,Drug uptake,Testes [7],0.23 % ID/g
same,Drug uptake,Heart [8],0.28 % ID/g
same,Drug uptake,Heart [9],0.3 % ID/g
same,Drug uptake,Bone [10],0.27 % ID/g
same,Drug uptake,Pancreas [11],2.65 % ID/g
same,Drug uptake,[12],1.68 % ID/g
same,Drug uptake,Spleen [13],0.64 % ID/g
same,Drug uptake,Testes [14],0.13 % ID/g
same,Drug uptake,Kidney [15],0.89 % ID/g
same,Drug uptake,Bone [16],0.17 % ID/g
same,Drug uptake,Spleen [17],0.18 % ID/g
same,Drug uptake,Lung [18],0.8 % ID/g
same,Drug uptake,Heart [19],0.44 % ID/g
same,Drug uptake,Testes [20],0.18 % ID/g
same,Drug uptake,Pancreas [21],2.77 % ID/g
same,Drug uptake,Muscle tissue [22],0.24 % ID/g
same,Drug uptake,Liver [23],0.93 % ID/g
same,Drug uptake,Blood [24],0.14 % ID/g
same,Drug uptake,Kidney [25],3.44 % ID/g
same,Drug uptake,[26],1.24 % ID/g
same,Drug uptake,Brain [27],0.1 % ID/g
same,Drug uptake,Liver [28],0.41 % ID/g
same,Drug uptake,Blood [29],0.48 % ID/g
same,Drug uptake,Spleen [30],0.48 % ID/g
same,Drug uptake,Pancreas [31],1.84 % ID/g
same,Drug uptake,Liver [32],0.63 % ID/g
same,Ratio,[33],13
same,Drug uptake,[34],0.98 % ID/g
same,Drug uptake,Blood [35],0.29 % ID/g
same,Drug uptake,Lung [36],1.53 % ID/g
same,Drug uptake,Muscle tissue [37],0.28 % ID/g
same,Drug uptake,Lung [38],1.13 % ID/g
same,Drug uptake,Liver [39],0.4 % ID/g
same,Drug uptake,Pancreas [40],2.91 % ID/g
same,Drug uptake,Testes [41],0.14 % ID/g
same,Drug uptake,Bone [42],0.14 % ID/g
same,Ratio,[43],12
same,Drug uptake,Lung [44],0.78 % ID/g
same,Drug uptake,Spleen [45],0.3 % ID/g
same,Drug uptake,Bone [46],0.13 % ID/g
same,Drug uptake,Brain [47],0.1 % ID/g
same,Drug uptake,Blood [48],0.21 % ID/g
same,Drug uptake,Kidney [49],4.87 % ID/g
same,Ratio,[50],10
same,Drug uptake,Muscle tissue [51],0.28 % ID/g
same,Drug uptake,Muscle tissue [52],0.17 % ID/g
